Numbering of substitutions follows the chain as printed. Several values for one entry are separate records, joined by “and”; a condition that tells them apart may be missing. Identical values can stand only once.
Legend:
Format in all cases: cell-based
hTA1 T271A = biological target: T1, hTA1 T271A (Homo sapiens, UniProt Q96RJ0, T271A); test: GloSensor cAMP accumulation assay, T271A mutant
T1 construct: expressed in transfected cells; host or cells: HEK293T
T1 sequence (Q96RJ0 1-339 T271A): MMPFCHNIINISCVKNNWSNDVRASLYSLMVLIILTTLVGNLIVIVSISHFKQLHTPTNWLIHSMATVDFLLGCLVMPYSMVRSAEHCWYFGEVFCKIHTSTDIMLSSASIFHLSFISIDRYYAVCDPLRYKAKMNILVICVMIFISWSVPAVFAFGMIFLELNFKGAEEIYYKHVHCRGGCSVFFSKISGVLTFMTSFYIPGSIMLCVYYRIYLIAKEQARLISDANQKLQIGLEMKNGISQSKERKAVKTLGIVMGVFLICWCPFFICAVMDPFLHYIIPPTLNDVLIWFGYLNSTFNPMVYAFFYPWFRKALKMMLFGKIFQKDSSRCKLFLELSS

hTA1 I290N = biological target: T2, hTA1 I290N (Homo sapiens, UniProt Q96RJ0, I290N); test: GloSensor cAMP accumulation assay, I290N mutant;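 also: cells transiently co-expressing hTA1 and the GloSensor cAMP biosensor, luminescence read 30 min after compound addition at room temperature, efficacy scaled to the maximal β-PEA response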
T2 construct: expressed in transfected cells; host or cells: HEK293T
T2 sequence (Q96RJ0 1-339 I290N): T1 sequence (Q96RJ0 1-339 T271A) with A271T, I290N

hTA1 S107C = biological target: T3, hTA1 S107C (Homo sapiens, UniProt Q96RJ0, S107C); test: GloSensor cAMP accumulation assay, S107C mutant;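 also: cells transiently co-expressing receptor and GloSensor biosensor, luminescence read after 30 min agonist exposure at room temperature, concentration-response fitted by nonlinear regression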
T3 construct: expressed in transfected cells; host or cells: HEK293T
T3 sequence (Q96RJ0 1-339 S107C): T1 sequence (Q96RJ0 1-339 T271A) with S107C, A271T

hTA1 C178S = biological target: T4, hTA1 C178S (Homo sapiens, UniProt Q96RJ0, C178S); test: GloSensor cAMP accumulation assay, C178S mutant; details: for C178S - Normalized Luminescence Counts (N=2): log[Compound], single replicates
T4 construct: expressed in transfected cells; host or cells: HEK293T
T4 sequence (Q96RJ0 1-339 C178S): T1 sequence (Q96RJ0 1-339 T271A) with C178S, A271T

hTA1 C13S = biological target: T5, hTA1 C13S (Homo sapiens, UniProt Q96RJ0, C13S); test: GloSensor cAMP accumulation assay, C13S mutant; details: for C13S - Normalized Luminescence Counts (N=2): log[Compound], single wells
T5 construct: expressed in transfected cells; host or cells: HEK293T
T5 sequence (Q96RJ0 1-339 C13S): T1 sequence (Q96RJ0 1-339 T271A) with C13S, A271T

[1] = C178S, each row one experiment (N=2), 3 replicates

SMILES: NCCc1ccc(Oc2ccc(O)cc2)c(I)c1 [T1AM, 3-iodothyronamine]
- ΔpEC50 values (each mutant value - WT average), Mean (hTA1 T271A; T271A mutant minus WT average, Figure 5B): -0.6347 and -0.7159
- pEC50 values, Mean (hTA1 T271A; T271A mutant, Figure 5B, each row one independent experiment (3 replicates)): 5.495 and 5.413
- Emax values, Mean (hTA1 T271A; T271A mutant, Figure 5B, β-PEA = 100, each row one independent experiment (3 replicates)): 41.9229 and 94.6558
- Span ± SEM (Emax normalized to β-PEA) (hTA1 T271A; T271A, n=2): 68.29
- pEC50 ± SEM (hTA1 T271A; T271A, n=2): 5.45 ± 0.03
- EC50 (hTA1 T271A; T271A, n=2, read-out: EC50): 3.52 µM
- increase in potency vs wild type (hTA1 I290N; I290N): about 5 fold
- Span ± SEM (Emax normalized to β-PEA) (hTA1 I290N; I290N, n=2): 76.97 ± 5.53
- pEC50 ± SEM (hTA1 I290N; I290N, n=2): 6.86 ± 0.07
- EC50 (hTA1 I290N; I290N, n=2, read-out: EC50): 0.139 µM
- cAMP accumulation response, single replicate values (source data, Supplementary Figure 5) (hTA1 I290N; hTA1 I290N (N=2), log[Compound], M = -5): 86.8237 and 86.3523 and 77.8671 and 98.8421
- ΔpEC50 values (each mutant value - WT average), Mean (hTA1 I290N; hTA1 I290N mutant minus WT average): 0.6614 and 0.7922
- pEC50 values, Mean (hTA1 I290N; hTA1 I290N mutant, Figure 3B source data, each grid row a separate experiment, 3 replicates): 6.791 and 6.921
- Emax values, Mean (hTA1 I290N; hTA1 I290N mutant, β-PEA set to 100, each grid row a separate experiment, 3 replicates): 82.4992 and 71.4451
- ΔEmax values (each mutant value - WT average) (hTA1 S107C; S107C mutant minus WT average): 9.303
- Emax values, Mean (hTA1 S107C; S107C mutant, β-PEA = 100, each line an independent experiment, 3 replicates): 79.7491 and 64.3505
- Span ± SEM (Emax normalized to β-PEA) (hTA1 S107C; S107C, n=2): 72.05 ± 7.70
- pEC50 ± SEM (hTA1 S107C; S107C, n=2): 5.87 ± 0.53
- EC50 (hTA1 S107C; S107C, n=2, read-out: EC50): 1.35 µM
- pEC50 values, Mean (hTA1 C178S; [1]): 5.899 and 6.116
- ΔpEC50 values (each mutant value - WT average), Mean (hTA1 C178S; [1]): -0.2302 and -0.01318
- Span ± SEM (Emax normalized to β-PEA) (hTA1 C178S; C178S, n=2): 86.82 ± 7.63
- pEC50 ± SEM (hTA1 C178S; C178S, n=2): 6.01 ± 0.05
- EC50 (hTA1 C178S; C178S, n=2, read-out: EC50): 0.983 µM
- Emax values, Mean (hTA1 C178S; C178S, β-PEA = 100, each row one experiment (N=2), 3 replicates): 79.1908 and 94.4471
- C178S - Normalized Luminescence Counts (N=2) (hTA1 C178S; M = -5): 73.1003 and 72.1657 and 63.8478 and 81.3738 and 108.419 and 79.3694
- C178S - Normalized Luminescence Counts (N=2) (hTA1 C178S; M = -5.522): 52.0253 and 55.0627 and 58.1468 and 73.8647 and 83.1688 and 53.1323
- C178S - Normalized Luminescence Counts (N=2) (hTA1 C178S; M = -6): 32.3989 and 32.726 and 30.2026 and 62.7356 and 57.5001 and 49.3328
- C178S - Normalized Luminescence Counts (N=2) (hTA1 C178S; M = -6.522): 18.0529 and 16.5576 and 18.9875 and 30.7245 and 26.2071 and 22.4375
- C178S - Normalized Luminescence Counts (N=2) (hTA1 C178S; M = -7): 4.642 and 4.221 and 4.735 and 9.753 and 8.496 and 8.018
- C178S - Normalized Luminescence Counts (N=2) (hTA1 C178S; M = -7.522): 0.763 and 0.4359 and 0.01533 and 0.9572 and 2.124 and 0.4486
- C178S - Normalized Luminescence Counts (N=2) (hTA1 C178S; M = -8): -0.8725 and -0.6389 and -0.8258 and 3.769 and 2.842 and 2.124
- C178S - Normalized Luminescence Counts (N=2) (hTA1 C178S; M = -8.522): -0.6389 and -1.6202 and -1.667 and 1.376 and 0.02978 and -2.184
- C178S - Normalized Luminescence Counts (N=2) (hTA1 C178S; M = -9): -0.5921 and -1.854 and -1.48 and 0.05969 and 0.9871 and -1.316
- C178S - Normalized Luminescence Counts (N=2) (hTA1 C178S; M = -9.522): -1.293 and -1.48 and -0.6389 and -0.03006 and -0.3591 and -0.4489
- C178S - Normalized Luminescence Counts (N=2) (hTA1 C178S; M = -10): -0.2183 and -0.5454 and -0.966 and -0.5087 and 0.4187 and -1.556
- C178S - Normalized Luminescence Counts (N=2) (hTA1 C178S; M = -10.522): -0.7791 and -0.8258 and -0.8725 and -0.2993 and -0.5386 and -2.962
- C178S - Normalized Luminescence Counts (N=2) (hTA1 C178S; M = -11): -1.433 and -0.8258 and -0.4987 and 1.047 and 0.4785 and -0.2993
- C178S - Normalized Luminescence Counts (N=2) (hTA1 C178S; M = -11.522): -1.293 and -0.6389 and -1.059 and 2.124 and 1.1367 and -0.9276
- C178S - Normalized Luminescence Counts (N=2) (hTA1 C178S; M = -12): -0.1249 and -0.6856 and 0.06206 and -0.2096 and -0.5386 and -1.227
- C178S - Normalized Luminescence Counts (N=2) (hTA1 C178S; M = -12.522): -0.7323 and -0.7791 and -0.8725 and 0.2691 and -0.419 and 0.299
- ΔpEC50 values (each mutant value - WT average) (hTA1 C13S; C13S): -0.156 and -0.1145
- Emax values (hTA1 C13S; C13S, Mean of fit per experiment): 53.0882 and 64.9586
- Span ± SEM (Emax normalized to β-PEA) (hTA1 C13S; C13S, n=2): 59.02 ± 5.94
- pEC50 ± SEM (hTA1 C13S; C13S, n=2): 5.99 ± 0.05
- EC50 (hTA1 C13S; C13S, n=2, read-out: EC50): 1.01 µM
- pEC50 values, Mean (hTA1 C13S; hTA1 C13S, mean of 3 replicates, one line per independent experiment): 5.973 and 6.015
- C13S - Normalized Luminescence Counts (N=2) (hTA1 C13S; M = -5): 54.3554 and 36.9604 and 53.1374 and 65.6185 and 52.4268 and 54.7653
- C13S - Normalized Luminescence Counts (N=2) (hTA1 C13S; M = -5.522): 42.3654 and 30.6418 and 38.8635 and 53.123 and 40.9666 and 58.8174
- C13S - Normalized Luminescence Counts (N=2) (hTA1 C13S; M = -6): 26.7212 and 21.3162 and 26.3787 and 35.2187 and 26.4539 and 31.7735
- C13S - Normalized Luminescence Counts (N=2) (hTA1 C13S; M = -6.522): 13.0564 and 10.1636 and 13.437 and 17.4036 and 12.4411 and 15.1722
